Data reported in patent US12171229B2, “Heteroaryl-triazole and heteroaryl-tetrazole compounds as pesticides” (BAYER AKTIENGESELLSCHAFT, priority 2018, dated 2024).

Legend:
Format in all cases: in vivo
Ctenocephalides felis [1] = assay: Ctenocephalides felis in-vitro contact test, adult cat flea; settings: 5 μg/cm^2 (=500 g/ha), after 48 hours, adult cat fleas, read-out: efficacy (fleas dead or moribund)
Experimental: Ctenocephalides Felis—In-Vitro Contact Tests Adult Cat Flea 9 mg compound is solved in 1 ml acetone and diluted with acetone to the desired concentration. 250 μl of the test solution is filled in 25 ml glass test tubes and homogeneously distributed on the inner walls by rotation and tilting on a shaking device (2 h at 30 rpm). With a compound concentration of 900 ppm, an inner surface of 44.7 cm^2 and a homogeneous distribution, a dose of 5 μg/cm^2 is achieved. After the solvent has evaporated, each test tube is filled with 5-10 adult cat fleas (Ctenocephalides felis), closed with a perforated lid and incubated in a lying position at room temperature and relative humidity. After 48 hours efficacy is determined. The fleas are patted on the ground of the tubes and are incubated on a heating plate at 45-50° C. for at most 5 minutes. Immotile or uncoordinated moving fleas, which are not able to escape the heat by climbing upwards, are marked as dead or moribund. […] An efficacy of 100% means all fleas are dead or moribund; 0% means no fleas are dead or moribund.

Nezara viridula = Nezara viridula spray test; settings: 96 h, after 4 days, larvae on barley plants
Procedure, shortened: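 Barley plants infested with Nezara viridula larvae were sprayed with compound diluted in water containing 1000 ppm emulsifier. Percent mortality was scored 4 days later, where 100% means all bugs killed and 0% none.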

Spodoptera frugiperda = Spodoptera frugiperda spray test; settings: 168 h, after 7 days, larvae on maize leaf sections
Procedure, shortened: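 Maize leaf sections were sprayed with compound formulated in solvent and diluted in water containing 1000 ppm emulsifier, then infested with fall armyworm larvae after drying. Percent mortality was scored after 7 days (100% = all caterpillars dead, 0% = none).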

Ctenocephalides felis [2] = assay: Ctenocephalides felis oral test; settings: 48 h, 100 ppm in cattle blood, after 2 days, adult unfed cat fleas
Procedure, shortened: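 About 20 unfed adult cat fleas feed through parafilm on cattle blood dosed with compound from a DMSO stock. Blood chamber at 37° C, fleas at room temperature. Percent mortality scored after 2 days.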

Diabrotica balteata = Diabrotica balteata spray test; settings: Diabrotica balteata, in Triticum aestivum, 168 h, after 7 days, larvae on wheat seeds, read-out: efficacy (seedlings grown up); for pest or weed control at 80 µg/disc, 250 g/ha: 80 μg/well (=250 g/ha); for pest or weed control at 160 µg/disc, 500 g/ha: 160 μg/well (=500 g/ha)
Procedure, shortened: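 Germinated wheat seeds (5 per well, 1 day on agar) sprayed with compound diluted in water containing 1000 ppm emulsifier, then infested with 10–20 D. balteata larvae. Efficacy scored after 7 days: 100% = seedlings like untreated uninfested control, 0% = no seedlings grown.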

Myzus persicae [3] = assay: Myzus persicae oral test; settings: 120 h, 4 ppm, after 5 days
Procedure, shortened: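 Aphid mortality (%) was recorded 5 days after a mixed Myzus persicae population began sucking, through parafilm, on compound solutions (acetone stock diluted with water) combined with sugar-supplemented IPL41 medium.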

Nilaparvata lugens = Nilaparvata lugens spray test; settings: 336 h, after 14 days, rice plants
Experimental: Nilaparvata lugens—Spray Test
To produce a suitable preparation of active compound, 1 part by weight of active compound is mixed with the stated amount of solvents and is diluted with water, containing an emulsifier concentration of 1000 ppm, to the desired concentration. Further test concentrations are prepared by dilution with emulsifier containing water.
Rice plants (Oryza sativa) are sprayed with a preparation of the active ingredient of the desired concentration and the plants are infested with the brown planthopper (Nilaparvata lugens).
After 14 days mortality in % is determined. 100% means all planthoppers have been killed and 0% means none of the planthoppers have been killed.

Boophilus microplus = Boophilus microplus injection test; settings: Rhipicephalus microplus, 168 h; 20 μg/animal injected into the abdomen; adult engorged female ticks; egg deposition after 7 days; read-out: efficacy (infertile eggs)
Procedure, shortened: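 Five engorged adult female ticks received a 1 μl abdominal injection of compound in DMSO. They were then held in a climate chamber, with egg deposition checked after 7 days. Unclear eggs were kept until hatching at about 42 days, and efficacy was scored as the percentage of infertile eggs.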

Myzus persicae [4] = assay: Myzus persicae spray test; settings: foliar, 120 h, after 5 days, Chinese cabbage leaf disks
Procedure, shortened: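 Chinese cabbage leaf disks infested with all aphid instars were sprayed with compound diluted in water containing emulsifier (1000 ppm). Mortality (%) was scored after 5 days, 100% meaning all aphids killed.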

[5] = system: Musca domestica strain WHO-N; assay: Musca domestica test (MUSCDO surface treatment & contact assay); settings: 24 hours after contact, read-out: efficacy (mortality)
Experimental: Musca domestica test (MUSCDO surface treatment & contact assay)
(§1) Solvent: Aceton+2000 ppm rapeseed oil methyl ester (RME)
(§2) In order to produce a sufficient, active ingredient containing solution it is necessary to solve the test compound in the solvent-mix (acetone at 2 mg/ml/RME 2000 ppm). This solution is pipetted onto a glazed tile and after evaporation of the acetone, adult flies of the species Musca domestica strain WHO-N are placed onto the dried surface. The exposure time is 30 minutes.
Mortality in percent (%) is determined 24 hours after contact of the insects to the treated surface. 100% morality means that all tested insects are dead, whereas 0% means that no insect died.

[6] = system: Aedes aegypti strain MONHEIM; assay: Aedes aegypti test (AEDSAE surface treatment & contact assay); settings: 24 hours after contact, read-out: efficacy (mortality); for mortality at 4 mg/m2: surface concentration 4 mg/m^2, exposure 30 minutes; for mortality at 20 mg/m2: surface concentration 20 mg/m^2, exposure 30 minutes
Procedure, shortened: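 Compound dissolved in acetone (2 mg/ml) with 2000 ppm rapeseed oil methyl ester, applied to glazed tile and dried; adult strain MONHEIM mosquitoes exposed 30 minutes. Percent mortality scored 24 hours after contact.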

[7] = system: Anopheles funestus strain FUMOZ-R; assay: Anopheles funestus test (ANPHFU surface treatment & contact assay); settings: 24 hours after contact, read-out: efficacy (mortality); for mortality at 20 mg/m2: surface concentration 20 mg/m^2, exposure 30 minutes
Experimental: Anopheles funestus Test (ANPHFU Surface Treatment & Contact Assay)
as §1
as §2, with “mosquitoes” for “flies”, “Anopheles funestus” for “Musca domestica”, “FUMOZ-R (Hunt et al., Med. Vet. Entomol. 2005 September; 19(3): 271-275)” for “WHO-N”
(§3) Mortality in percent (%) is determined 24 hours after contact of the insects to the treated surface. 100% mortality means that all tested insects are dead, whereas 0% means that no insect died.

[8] = system: Culex quinquefasciatus strain P00; assay: Culex quinquefasciatus test (CULXFA surface treatment & contact assay); settings: 24 hours after contact, read-out: efficacy (mortality); for mortality at 4 mg/m2: surface concentration 4 mg/m^2, exposure 30 minutes; for mortality at 20 mg/m2: surface concentration 20 mg/m^2, exposure 30 minutes
Experimental: Culex Quinquefasciatus Test (CULXFA Surface Treatment & Contact Assay)
as §1
as §2, with “mosquitoes” for “flies”, “Culex quinquefasciatus” for “Musca domestica”, “P00” for “WHO-N”
as §3

[9] = surface concentration 4 mg/m^2, exposure 30 minutes

C[C@H](NC(=O)c1cc(C(F)(F)F)cc(C(F)(F)F)c1)c1ncnn1-c1ncc(F)cc1F [Example I-077]
pest or weed control at 5 µg/cm2 (Ctenocephalides felis [1]): 100%
mortality at 100 g/ha (Nezara viridula): 100%
mortality at 500 g/ha (Nezara viridula): 100%
mortality at 100 g/ha (Spodoptera frugiperda): 100%
mortality at 500 g/ha (Spodoptera frugiperda): 100%
mortality at 100 ppm (Ctenocephalides felis [2]): 100%
pest or weed control at 80 µg/disc, 250 g/ha (Diabrotica balteata): 100%
pest or weed control at 160 µg/disc, 500 g/ha (Diabrotica balteata): 100%
mortality at 4 ppm (Myzus persicae [3]): 100%
mortality at 500 g/ha (Nilaparvata lugens): 100%
pest or weed control at 0.02 mg (Boophilus microplus): 100%
mortality at 100 g/ha (Myzus persicae [4]): 90%
mortality at 500 g/ha (Myzus persicae [4]): 90%

C[C@H](NC(=O)c1cc(Cl)cc(C(F)(F)F)c1)c1ncnn1-c1ncc(F)cc1F [Example I-014]
mortality at 4 mg/m2 [5, 9]: 90 to 100%
mortality at 20 mg/m2 ([5]; surface concentration 20 mg/m^2, exposure 30 minutes): 90 to 100%
mortality at 4 mg/m2 [6]: 90 to 100%
mortality at 20 mg/m2 [6]: 90 to 100%
mortality at 100 g/ha (Nezara viridula): 100%
mortality at 500 g/ha (Nezara viridula): 100%
mortality at 100 g/ha (Spodoptera frugiperda): 100%
mortality at 500 g/ha (Spodoptera frugiperda): 100%
mortality at 100 ppm (Ctenocephalides felis [2]): 100%
pest or weed control at 80 µg/disc, 250 g/ha (Diabrotica balteata): 100%
pest or weed control at 160 µg/disc, 500 g/ha (Diabrotica balteata): 100%
mortality at 4 mg/m2 [7, 9]: 85 to 100%
mortality at 20 mg/m2 [7]: 90 to 100%
mortality at 4 ppm (Myzus persicae [3]): 100%
mortality at 4 mg/m2 [8]: 90 to 100%
mortality at 20 mg/m2 [8]: 90 to 100%
mortality at 500 g/ha (Nilaparvata lugens): 100%
pest or weed control at 0.02 mg (Boophilus microplus): 100%
mortality at 100 g/ha (Myzus persicae [4]): 90%
mortality at 500 g/ha (Myzus persicae [4]): 90%

CC[C@H](NC(=O)c1cc(Cl)cc(OC(F)(F)F)c1)c1ncnn1-c1ccc(C#N)cn1 [Example I-070]
mortality at 100 g/ha (Spodoptera frugiperda): 100%
mortality at 500 g/ha (Spodoptera frugiperda): 100%
mortality at 100 ppm (Ctenocephalides felis [2]): 80%
mortality at 500 g/ha (Nilaparvata lugens): 100%
pest or weed control at 0.02 mg (Boophilus microplus): 100%

CC[C@H](NC(=O)c1cc(C(F)(F)F)cc(C(F)(F)F)c1)c1ncnn1-c1ccc([N+](=O)[O-])cn1 [Example I-069]
mortality at 500 g/ha (Spodoptera frugiperda): 100%
pest or weed control at 160 µg/disc, 500 g/ha (Diabrotica balteata): 100%
mortality at 500 g/ha (Nilaparvata lugens): 70%
pest or weed control at 0.02 mg (Boophilus microplus): 100%

CC(NC(=S)c1cc(Cl)cc(C(F)(F)F)c1)c1ncnn1-c1ccc(C#N)cn1 (stereo in doubt) [Example I-080, 3-chloro-N-{(1R)-1-[1-(5-cyanopyridin-2-yl)-1H-1,2,4-triazol-5-yl]ethyl}-5-(trifluoromethyl)benzenecarbothioamide]
pest or weed control at 5 µg/cm2 (Ctenocephalides felis [1]): 100%
mortality at 100 g/ha (Nezara viridula): 100%
mortality at 500 g/ha (Nezara viridula): 100%
mortality at 100 g/ha (Spodoptera frugiperda): 100%
mortality at 500 g/ha (Spodoptera frugiperda): 100%
mortality at 100 ppm (Ctenocephalides felis [2]): 100%
pest or weed control at 80 µg/disc, 250 g/ha (Diabrotica balteata): 100%
pest or weed control at 160 µg/disc, 500 g/ha (Diabrotica balteata): 80%
mortality at 500 g/ha (Nilaparvata lugens): 100%
pest or weed control at 0.02 mg (Boophilus microplus): 100%

C[C@H](NC(=O)c1cc(Cl)cc(C(F)(F)F)c1)c1ncnn1-c1ccc(C(=O)NCC(F)(F)F)cn1 [Example I-078]
pest or weed control at 5 µg/cm2 (Ctenocephalides felis [1]): 90%
mortality at 100 g/ha (Nezara viridula): 90%
mortality at 500 g/ha (Nezara viridula): 100%
mortality at 100 g/ha (Spodoptera frugiperda): 100%
mortality at 500 g/ha (Spodoptera frugiperda): 100%
mortality at 100 ppm (Ctenocephalides felis [2]): 100%
pest or weed control at 80 µg/disc, 250 g/ha (Diabrotica balteata): 100%
pest or weed control at 160 µg/disc, 500 g/ha (Diabrotica balteata): 80%
mortality at 4 ppm (Myzus persicae [3]): 100%
mortality at 500 g/ha (Nilaparvata lugens): 100%
pest or weed control at 0.02 mg (Boophilus microplus): 100%

CC[C@H](NC(=O)c1cc(C(F)(F)F)cc(C(F)(F)F)c1)c1ncnn1-c1ccc(NC(=O)C2CC2)cn1 [Example I-094]
mortality at 500 g/ha (Nezara viridula): 100%
mortality at 100 ppm (Ctenocephalides felis [2]): 100%
pest or weed control at 80 µg/disc, 250 g/ha (Diabrotica balteata): 100%
mortality at 500 g/ha (Nilaparvata lugens): 100%

C[C@H](NC(=O)c1cc(Cl)cc(C(F)(F)F)c1)c1ncnn1-c1ccc(OCC(F)(F)F)cn1 [Example I-039, 3-chloro-N-[(1S)-1-{1-[5-(2,2,2-trifluoroethoxy)pyridin-2-yl]-1H-1,2,4-triazol-5-yl}ethyl]-5-(trifluoromethyl)benzamide]
mortality at 4 mg/m2 [6]: 90 to 100%
mortality at 100 g/ha (Spodoptera frugiperda): 100%
mortality at 500 g/ha (Spodoptera frugiperda): 100%
mortality at 100 ppm (Ctenocephalides felis [2]): 100%
pest or weed control at 80 µg/disc, 250 g/ha (Diabrotica balteata): 100%
pest or weed control at 160 µg/disc, 500 g/ha (Diabrotica balteata): 100%
mortality at 500 g/ha (Nilaparvata lugens): 100%
pest or weed control at 0.02 mg (Boophilus microplus): 100%

CC(=O)Nc1ccc(-n2ncnc2[C@H](C)NC(=O)c2cc(Cl)cc(C(F)(F)F)c2)nc1 [Example I-033]
pest or weed control at 5 µg/cm2 (Ctenocephalides felis [1]): 100%
mortality at 4 mg/m2 [6]: 90 to 100%
mortality at 20 mg/m2 [6]: 90 to 100%
mortality at 500 g/ha (Nezara viridula): 100%
mortality at 100 g/ha (Spodoptera frugiperda): 100%
mortality at 500 g/ha (Spodoptera frugiperda): 100%
mortality at 100 ppm (Ctenocephalides felis [2]): 100%
pest or weed control at 80 µg/disc, 250 g/ha (Diabrotica balteata): 100%
pest or weed control at 160 µg/disc, 500 g/ha (Diabrotica balteata): 100%
mortality at 20 mg/m2 [7]: 90 to 100%
mortality at 4 ppm (Myzus persicae [3]): 100%
mortality at 4 mg/m2 [8]: 90 to 100%
mortality at 20 mg/m2 [8]: 90 to 100%
pest or weed control at 0.02 mg (Boophilus microplus): 100%
mortality at 100 g/ha (Myzus persicae [4]): 100%
mortality at 500 g/ha (Myzus persicae [4]): 100%
